Laboratory results: patent publication EP3685668B1, “COMPOSITION COMPRISING ACIBENZOLAR-S-METHYL AS EFFECTIVE INGREDIENT FOR CONTROLLING BURSAPHELENCHUS XYLOPHILUS DISEASE AND METHOD FOR CONTROLLING BURSAPHELENCHUS XYLOPHILUS USING SAME” (Industry Foundation of Chonnam National University, priority 2017, dated 2019)

Assays:
[1] = system: Bursaphelenchus xylophilus; assay: In vitro nematicidal activity, 96-well microplate; conditions: after 3 days
Method: To test the nematicidal activity of acibenzolar-S-methyl, a suspension of Bursaphelenchus xylophilus was diluted in a 96-well microplate to have 50 worms/99 µℓ in each well and used for the treatment. […] Each treatment was repeated 3 times, and "A Pharm" (emamectin benzoate, 2.15%), which is a chemical pesticide, was used as a control group. After the treatment, the 96-well plate was kept in a plastic box having water-soaked wipes spread on the bottom to maintain 100% humidity, and, after covering the box with black cloth, the box was stored in a dark state with blockage of light. The observation was made after 3 days. […] [Table 2] Nematicidal activity of acibenzolar-S-methyl against Bursaphelenchus xylophilus

[2] = system: PR_2 family; assay: qRT-PCR expression of induced resistance gene in pine tree callus; type: cell-based; conditions: concentration series, 2 µg/mℓ
[3] = system: Bursaphelenchus xylophilus; assay: Control efficacy against pine wilt disease by trunk injection, foliar spraying or soil drenching, greenhouse, red pine trees; type: in vivo; conditions: red pine tree, observed for 80 days
Method: The control efficacy of acibenzolar-S-methyl, which shown to have the highest activity in Example 1, was determined by three different treatment methods, i.e., trunk injection, foliar spraying, and soil drenching. For in vivo pathogenesis test, 2-year old young red pine trees (diameter of 5.5 mm or so, and height of about 35 mm) were used like Example 2.
For the trunk injection, a borehole was created at an angle of 45° by using an electric drill with thickness of 1.5 mm on a pine stem part that is 5 to 10 cm above the soil surface, a tip (200 µℓ) was inserted to the hole, and the working solution of chemicals was injected in an amount of 100 µℓ per pine tree after dissolving acibenzolar-S-methyl at concentration of 0.2 or 10 mg/mℓ in an aqueous solution containing 10% acetone and 10% methanol. After the treatment, the end part of the tip was sealed with parafilm, and a small hole was created thereon as an airflow hole. For the foliar spraying, a pre-treatment with Tween 20 (250 µg/mℓ) was carried out at 5 mℓ per pine tree to help the adsorption of the chemical on pine leaves, followed by drying for 2 hours. After drying, acibenzolar-S-methyl was dissolved at concentration of 1.6 mg/mℓ in an aqueous solution containing 10% acetone and Tween 20 (250 µg/mℓ) and the dissolved solution was filled in microsprayer and was applied 5 mℓ per pine tree by foliar spraying. For the soil drenching, acibenzolar-S-methyl was dissolved at concentration level of 0.2 mg/mℓ in an aqueous solution containing 10% acetone and Tween 20 (250 µg/mℓ), and this solution was used for soil drenching in a pot with planted pine tree, 40 mℓ per pine tree. […] [Table 3] The control efficacy of acibenzolar-S-methyl against pine wilt disease by various treatment methods

[4] = system: Xyloglucan; assay: qRT-PCR expression of induced resistance gene in pine tree callus; type: cell-based; conditions: concentration series
[5] = system: PR_3 family class 1; assay: as above; type: cell-based; conditions: concentration series, 2 µg/mℓ
[6] = system: PR_1b family; assay: as above; type: cell-based; conditions: concentration series
[7] = system: Heat shock 70; assay: as above; type: cell-based; conditions: concentration series, 2 µg/mℓ
[8] = Foliar spraying, 1,600 µg/mℓ, 5 mℓ per tree
[9] = Soil drenching, 200 µg/mℓ, 40 mℓ per tree

CSC(=O)c1cccc2nnsc12 [ASM, acibenzolar-S-methyl]
Nematicidal rate (%) ([1]; 33.3 µg/mℓ): 1.72%
Nematicidal rate (%) ([1]; 100 µg/mℓ): 1.94%
Nematicidal rate (%) ([1]; 300 µg/mℓ): 2.24%
nematicidal activity ([1]; second stage larvae, 300, 100 or 33.3 µg/mℓ): no nematicidal activity
Gene expression level, PR_2 family [2]: 1.828
Control value (%) [3, 8]: 61%
Disease occurrence rate (%) [3, 8]: 28%
Control value (%) [3, 9]: 97%
Disease occurrence rate (%) [3, 9]: 2%
Control value (%) ([3]; Trunk injection, 200 µg/mℓ): 77%
Disease occurrence rate (%) ([3]; Trunk injection, 200 µg/mℓ): 16%
Control value (%) ([3]; Trunk injection, 10,000 µg/mℓ): 27%
Disease occurrence rate (%) ([3]; Trunk injection, 10,000 µg/mℓ): 52%
Gene expression level, Xyloglucan ([4]; 2 µg/mℓ): 7.013
Gene expression level, Xyloglucan ([4]; 20 µg/mℓ): 5.389
Gene expression level, PR_3 family class 1 [5]: 3.945
Gene expression level, PR_1b family ([6]; 2 µg/mℓ): 1.064
Gene expression level, PR_1b family ([6]; 20 µg/mℓ): 1.248
Gene expression level, Heat shock 70 [7]: 22.47
